Assay results reported in PubChem BioAssay AID1645871.
Square brackets hold non-standard residues; d marks the D form. Peptide text beside a SMILES is read from it. ξ: configuration not given here. ξLac(3-iPr) = CC(C)CC(O)C(=O)O; NMeV = CN[CH](C(=O)O)C(C)C; NMeA = CN[CH](C)C(=O)O; βAla = NCCC(=O)O

settings: pampa; pH 5.0; 30.0 min; 50.0 µM

| Papp | SMILES |
| --- | --- |
| 76.5 ×10⁻⁶ cm/s | O=C(NC1CC1)C1CCCN1C(=O)c1cccc(-c2ccccn2)c1 (stereo not given) |
| 293 ×10⁻⁶ cm/s | COc1ccc(C)cc1Nc1c2c(nc3ccccc13)CCC2 |
| 235 ×10⁻⁶ cm/s | Cc1ccc(NC(=O)c2cc(-c3ccc[nH]3)n[nH]2)cc1F |
| 52.8 ×10⁻⁶ cm/s | Cn1nnnc1Sc1ncnc2scc(-c3cc4ccccc4o3)c12 |
| 401 ×10⁻⁶ cm/s | COc1cccc(-n2nc(C(=O)O)cc2-c2ccc(C3CCCCC3)c(Cl)c2)c1 |
| 618 ×10⁻⁶ cm/s | COc1ccc(Cn2c(C(=O)O)c(CNCc3ccco3)c3ccc(C)cc32)cc1 |
| 204 ×10⁻⁶ cm/s | CNc1nc2c(s1)C(c1ccc(Cl)cc1)CC(=O)N2 (stereo not given) |
| > 1000 ×10⁻⁶ cm/s | CCN(CC)C(=O)N1c2ccccc2C=Cc2ccccc21 |
| 288 ×10⁻⁶ cm/s | CCc1ccc(C2C(C(=O)Nc3ccccc3OC)=C(C)Nc3c(C(=O)Nc4ccc(C)cc4)cnn32)cc1 (stereo not given) |
| 505 ×10⁻⁶ cm/s | O=C(Nc1ccccc1F)c1nc(S(=O)(=O)Cc2ccccc2F)ncc1Cl |
| > 1000 ×10⁻⁶ cm/s | CCOc1ccccc1C(=O)NC1CCN(c2cc(C)cc(C)c2)C1=O (stereo not given) |
| 283 ×10⁻⁶ cm/s | COCCNC(=O)c1ccc(-c2ncc3cnc(-c4cccc(F)c4)cn23)cc1 |
| 589 ×10⁻⁶ cm/s | CNc1oc(-c2cccc(Cl)c2Cl)nc1C#N |
| 807 ×10⁻⁶ cm/s | COc1ccc2c(c1)CN(C(=O)CCN1CCC(Cc3ccccc3)CC1)CCS2 |
| 9.03 ×10⁻⁶ cm/s | Cc1noc(C)c1Cc1ccc(C(=O)N2CCc3c(nc4cc(-c5ccccc5)[nH]n4c3=O)C2)o1 |
| 171 ×10⁻⁶ cm/s | CN(C)c1ccc(-c2cc[nH]c(=O)c2N)cc1 |
| 455 ×10⁻⁶ cm/s | COC(=O)Nc1nc2ccc(C(=O)c3ccccc3)cc2[nH]1 |
| 44 ×10⁻⁶ cm/s | O=C(c1ccc2c(c1)OCO2)N1CCC(Cc2nc(-c3cnccn3)no2)CC1 |
| 963 ×10⁻⁶ cm/s | COc1ccc(N(C)C(=O)c2cc3c(s2)-c2ccccc2OC3)cc1 |
| > 1000 ×10⁻⁶ cm/s | CN1CCCN(C(c2ccccc2)c2ccc(Cl)cc2)CC1 (stereo not given) |
| 187 ×10⁻⁶ cm/s | COc1cccc(CN2CCNc3cc(Nc4ccccc4)ncc3C2)c1 |
| 786 ×10⁻⁶ cm/s | Cc1cccc(-c2cc(NC(=O)c3ccccc3C)n(-c3ccccc3)n2)c1 |
| 69.7 ×10⁻⁶ cm/s | CS(=O)(=O)CCNCc1ccc(-c2ccc3ncnc(Nc4ccc(OCc5cccc(F)c5)c(Cl)c4)c3c2)o1 |
| 19.5 ×10⁻⁶ cm/s | CC/C=C\C/C=C\C/C=C\C/C=C\C/C=C\C/C=C\CCC(=O)NCCO |
| 565 ×10⁻⁶ cm/s | CCN(CCN(C)C)C(=O)C1CCN(S(=O)(=O)c2c(C)noc2/C=C/c2ccccc2F)CC1 |

| Papp | SMILES |
| --- | --- |
| 76.8 ×10⁻⁶ cm/s | Nc1c(-c2ccccc2)cc[nH]c1=O |
| > 1000 ×10⁻⁶ cm/s | CCCNC(=O)c1ccc2c(c1)N=C(C)c1c(C)ccc(C)c1S2 |
| > 1000 ×10⁻⁶ cm/s | Cc1nn2c(c1-c1ccccc1OCc1ccccc1)N(C(=O)Cc1ccc3c(c1)OCO3)CCC2 |
| 224 ×10⁻⁶ cm/s | CC[C@H](C)[C@@H]([C@@H](CC(=O)N1CCC[C@H]1[C@H](OC)[C@@H](C)C(=O)N[C@@H](Cc1ccccc1)c1nccs1)OC)N(C)C(=O)[C@@H](NC(=O)[C@H](C(C)C)N(C)C)C(C)C |
| > 1000 ×10⁻⁶ cm/s | CN1Cc2c(cc(N3CCOCC3)nc2-c2ccccc2OC(F)(F)F)C1=O |
| 291 ×10⁻⁶ cm/s | Cc1ccc(-n2nc3c(=O)n(CCCC(=O)NCc4ccccc4F)nc(C)c3c2C)cc1 |
| > 1000 ×10⁻⁶ cm/s | Cc1ccc(NC(=O)c2c(N3CCCC3=O)c3cc(C)ccc3n2C)c(C)c1 |
| 899 ×10⁻⁶ cm/s | CCc1cc(Cl)c(OC)c(C(=O)NC[C@@H]2CCCN2CC)c1O |
| 48.8 ×10⁻⁶ cm/s | Fc1ccc(N2CCCN(CC3[C@H]4CNC[C@@H]34)CC2)cc1 (stereo not given in full) |
| > 1000 ×10⁻⁶ cm/s | COc1ccccc1CNS(=O)(=O)c1ccc(-c2cnc(C3CC3)o2)cc1 |
| 834 ×10⁻⁶ cm/s | COc1cccc(C(=O)Nc2nc(-c3nnn(-c4ccccc4C(F)(F)F)c3C)ns2)c1 |
| 5.85 ×10⁻⁶ cm/s | C[C@@H](O)CNC(C)(C)CC(=O)N[C@@H]1CCc2ccccc2N(Cc2ccc(-c3ccccc3-c3nn[nH]n3)cc2)C1=O |
| 21.7 ×10⁻⁶ cm/s | c1cc(-c2cc(-c3ccncc3)c3cncn3c2)c2cc[nH]c2c1 |
| 130 ×10⁻⁶ cm/s | COc1ccc(-n2nc(C3CCN(C(=O)C4CC4)CC3)[nH]c2=O)cc1 |
| 758 ×10⁻⁶ cm/s | COc1ccccc1N1CCN(CCN(C(=O)c2ccc(I)cc2)c2ccccn2)CC1 |
| 679 ×10⁻⁶ cm/s | N#Cc1ccc(C(=O)Nc2ccc(Cl)c(-c3nc4cc(Cl)ccc4o3)c2)c(F)c1 |
| > 1000 ×10⁻⁶ cm/s | Cc1cc(C)nc(NS(=O)(=O)c2ccc(NC(=S)NC(=O)COc3ccc(Br)cc3Cl)cc2)n1 |
| 62.8 ×10⁻⁶ cm/s | Cc1ccnc(NC(=O)C2CC(=O)N(c3n[nH]c4cc(Br)ccc34)C2)c1 (stereo not given) |
| 170 ×10⁻⁶ cm/s | CCOc1ccc(C2C(C(=O)Nc3ccccc3OC)=C(C)Nc3c(C(=O)Nc4cccc(C)c4)cnn32)cc1 (stereo not given) |
| 37.5 ×10⁻⁶ cm/s | O=C(O)c1ccc(N2C(=O)/C(=C/c3ccc(-c4ccc([N+](=O)[O-])cc4)o3)C=C2c2ccccc2)cc1 |
| 316 ×10⁻⁶ cm/s | CCOC(=O)c1ccc(N2C(=O)c3n[nH]c(-c4cccs4)c3C2c2ccc(Cl)cc2Cl)cc1 (stereo not given) |
| 583 ×10⁻⁶ cm/s | Cc1ccc(-n2c(=O)c3oc4ccccc4c3n(CC(=O)Nc3ccc(F)c(Cl)c3)c2=O)cc1C |
| 14.3 ×10⁻⁶ cm/s | Fc1ccc(CNc2cc3c(cn2)CN(Cc2ccncc2)CCN3)cc1 |
| 883 ×10⁻⁶ cm/s | COc1ccc(C)cc1NS(=O)(=O)c1ccc(-c2cnc(C3CC3)o2)cc1 |
| 1.2 ×10⁻⁶ cm/s | Cc1ccc(C(=O)N2CCc3c(nc4cc(-c5ccccc5)[nH]n4c3=O)C2)cn1 |

| Papp | SMILES |
| --- | --- |
| 860 ×10⁻⁶ cm/s | CC(C)Oc1ccc(CNC(=O)C2CCN(C(=O)N3CCOc4ccc(Cl)cc43)CC2)cc1 |
| 879 ×10⁻⁶ cm/s | Cc1nn2c(c1-c1ccccc1Oc1ccccc1)N(Cc1ccccc1O)CCC2 |
| 3.9 ×10⁻⁶ cm/s | Cc1ccc2oc3c(c(=O)c2c1)C(c1ccc(O)cc1)N(CCCN(C)C)C3=O (stereo not given) |
| 181 ×10⁻⁶ cm/s | O=C(Nc1cccnc1)c1cccs1 |
| 777 ×10⁻⁶ cm/s | COc1cccc2c1CCCC2CCCN1CCN(C2CCCCC2)CC1 (stereo not given) |
| 71.4 ×10⁻⁶ cm/s | COc1ccc(-n2nc(C3CCCN(C(=O)Cc4ccccn4)C3)[nH]c2=O)cc1 (stereo not given) |
| 591 ×10⁻⁶ cm/s | Cn1c(=O)c2c(-c3ccc(Br)cc3)n(CCc3ccccc3)cc2n(C)c1=O |
| 250 ×10⁻⁶ cm/s | COc1ccc(OC)c(CNc2ncnc3onc(C)c23)c1 |
| > 1000 ×10⁻⁶ cm/s | CCc1ccccc1-n1c(SCC(=O)Nc2ccc(C)cc2)nc2n[nH]c(C)c2c1=N |
| 178 ×10⁻⁶ cm/s | Cn1c(CN2CCCCC2)nc2cc(NC(=O)c3cccc(Br)c3)ccc21 |
| 15.8 ×10⁻⁶ cm/s | COc1ccc2c(c1)CCc1c-2n[nH]c1C(=O)N1CCc2c(nc3cc(-c4ccccc4)[nH]n3c2=O)C1 |
| 137 ×10⁻⁶ cm/s | COc1cc2ncnc(Oc3cccc(NC(=O)Nc4cc(C(C)(C)C(F)(F)F)on4)c3)c2cc1OC |
| 884 ×10⁻⁶ cm/s | CC(C)(C)c1ccc(C(=O)Nc2ccc3c(c2)CCCN3C(=O)c2cccs2)cc1 |
| 45.4 ×10⁻⁶ cm/s | COc1ccc(-c2cc(-c3cccc(NC(C)=O)c3)cn3cncc23)cn1 |
| 190 ×10⁻⁶ cm/s | c1ccc(CNc2nc(NCc3ccccc3)c3ccccc3n2)cc1 |
| 243 ×10⁻⁶ cm/s | COc1cc2cc(CN3CCC(N(C)C)C3)c(-c3cccc(Cl)c3)nc2cc1OC (stereo not given) |
| 926 ×10⁻⁶ cm/s | COc1ccc(C)cc1NC(=O)c1cnc(-c2ccc(F)cc2)nc1-c1ccncc1 |
| > 1000 ×10⁻⁶ cm/s | CCC1=Nc2cc(C(=O)NCCCOC)ccc2Sc2ccc(Br)cc21 |
| 255 ×10⁻⁶ cm/s | COc1ccc(C(=O)N2CCCC(c3nn(-c4ccc(OC)cc4)c(=O)[nH]3)C2)cc1 (stereo not given) |
| 939 ×10⁻⁶ cm/s | COc1cccc(N2CCN(c3ncc4c(n3)CCN(Cc3ccc(Br)cc3)C4)CC2)c1 |
| 616 ×10⁻⁶ cm/s | O=C(Cc1ccc(O)cc1)N1CC(CNc2ccccc2)C2(C1)CN(c1ccccc1)C2 (stereo not given) |
| 585 ×10⁻⁶ cm/s | O=C(CSc1nc(-c2ccc(F)cc2)[nH]c1-c1ccc(F)cc1)Nc1ccc2c(c1)OCCO2 |
| 19.2 ×10⁻⁶ cm/s | COc1ccc(C2c3c(oc4ccc(C)cc4c3=O)C(=O)N2CCCN2CCOCC2)cc1OC (stereo not given) |
| 26.2 ×10⁻⁶ cm/s | COc1ccc(-c2ccc3ncc(Nc4ccncc4)n3n2)cc1OC |
| 653 ×10⁻⁶ cm/s | CCc1ccc2ncc(C(=O)c3ccc(C)c(C)c3)c(N3CCC(C(N)=O)CC3)c2c1 |

| Papp | SMILES |
| --- | --- |
| 156 ×10⁻⁶ cm/s | COc1ccccc1NC(=O)C1=C(C)Nc2c(C(=O)Nc3cccc(C)c3)cnn2C1c1ccccc1Cl (stereo not given) |
| 552 ×10⁻⁶ cm/s | Cc1cccc(-n2ncc3c2CCCC3NC(=O)c2c(F)ccc(F)c2F)c1C (stereo not given) |
| 570 ×10⁻⁶ cm/s | Cc1ccc(NC(=O)C(Cc2ccccc2)NS(=O)(=O)c2cccs2)cc1Cl (stereo not given) |
| 821 ×10⁻⁶ cm/s | COc1ccc(Nc2cnc3ccc(-c4ccc(OC)c(OC)c4)nn23)cc1 |
| 341 ×10⁻⁶ cm/s | COc1ccc(-n2nc(C3CCCN(C(=O)c4ccccc4F)C3)[nH]c2=O)cc1 (stereo not given) |
| 7.15 ×10⁻⁶ cm/s | O=C(Nc1ccc(N2CCC(N3CCCCC3)CC2)c(C(=O)O)c1)c1ccc(Br)cc1 |
| 383 ×10⁻⁶ cm/s | Cc1n[nH]c(C)c1CCc1nc2c3ccccc3nc(SCC(=O)Nc3ccc(F)cc3)n2n1 |
| > 1000 ×10⁻⁶ cm/s | Cc1cc(C)nc(NC(=S)N2CCN(Cc3ccc(C(F)(F)F)cc3)CC2)c1 |
| 118 ×10⁻⁶ cm/s | Cc1nn2c(c1-c1ccccc1-c1ccccc1)N(Cc1ccc(O)cc1)CCC2 |
| 65.3 ×10⁻⁶ cm/s | COC[C@@H]1CN(C(=O)c2nn(C)c3ccccc23)C[C@H]1c1nc(C)no1 |
| 17.9 ×10⁻⁶ cm/s | CC[C@H]1CN2CCC3CC(OC)C(OC)CC3[C@@H]2C[C@@H]1C[C@H]1NCCC2=C1CC(OC)=C(O)C2 (stereo not given in full) |
| 315 ×10⁻⁶ cm/s | COc1ccc(-n2nc(C3CCCN(C(=O)Nc4ccccc4)C3)[nH]c2=O)cc1 (stereo not given) |
| > 1000 ×10⁻⁶ cm/s | COC(=O)C1=C(C)NC(C)=C(C(=O)O[C@@H]2CCCN(Cc3ccccc3)C2)[C@@H]1c1cccc([N+](=O)[O-])c1 |
| 926 ×10⁻⁶ cm/s | COc1cc(C(=O)NC2CCCc3c2[nH]c2ccccc32)cc(OC)c1OC (stereo not given) |
| 41.3 ×10⁻⁶ cm/s | CC1=C[C@@H](CNC(C)C)[C@H](C(C)C)C[C@H]1Cc1nnc(-c2ccncc2)o1 |
| > 1000 ×10⁻⁶ cm/s | COc1ccc(-c2cc(C)nc3c(-c4ccc(OC)c(OC)c4)c(C)nn23)cc1 |
| 483 ×10⁻⁶ cm/s | COc1ccc(C(=O)NC2CCCc3c2[nH]c2c(Cl)cccc32)cc1OC (stereo not given) |
| 103 ×10⁻⁶ cm/s | O=C(Nc1cccc(OC(F)(F)F)c1)c1cc(-c2ccc[nH]2)n[nH]1 |
| 867 ×10⁻⁶ cm/s | CCCCOc1ccc(CNC(=O)c2cc3n(n2)CCCN(Cc2ccc(C)cc2)C3=O)cc1 |
| 331 ×10⁻⁶ cm/s | COc1ccc(OC)c(-n2c3c(cc(-c4nc(-c5ccc(Cl)cc5)cs4)c2=O)C(=O)CC(C)(C)C3)c1 |
| 627 ×10⁻⁶ cm/s | CNC(=O)c1ccc(C)c(-n2c(C)cc(OCc3ccc(F)cc3F)c(Br)c2=O)c1 |
| 626 ×10⁻⁶ cm/s | Cc1ccc(CN2C(=O)C(O)(CC(=O)c3ccc(C)cc3)c3ccccc32)cc1 (stereo not given) |
| > 1000 ×10⁻⁶ cm/s | COc1ccc(-n2nc(C)c([C@@H]3C=C[C@@H](NCc4ccc(N(C)C)cc4)C3)c2C)cc1 |

| SMILES | Papp |
| --- | --- |
| C[C@H]1CCC[C@H](O)CCC/C=C/c2cc(O)cc(O)c2C(=O)O1 | 795 ×10⁻⁶ cm/s |
| CCC(C)C1NC(=O)C2CCCN2C(=O)C(CC(C)C)OC(=O)CCNC(=O)C(C)N(C)C(=O)C(C(C)C)N(C)C1=O (stereo not given) (cyclo([ξLac(3-iPr)]PI[NMeV][NMeA][βAla]); configuration not given here) | 74 ×10⁻⁶ cm/s |
